Experimental data published in US11370798B2 (Vertex Pharmaceuticals Incorporated, priority 2012, dated 2022).

The compounds below were run on HCT116 colorectal cancer cells (assay: Cisplatin sensitization assay (96 h cell viability MTS)). Settings: compound and Cisplatin added simultaneously, Cisplatin sensitization value.
Format: cell-based
Procedure: Compounds can be screened for their ability to sensitize HCT116 colorectal cancer cells to Cisplatin using a 96 h cell viability (MTS) assay. […] Compounds and Cisplatin are then both added simultaneously to the cell media in 2-fold serial dilutions from a top final concentration of 10 μM as a full matrix of concentrations in a final cell volume of 200 μl, and the cells are then incubated at 37° C. in 5% CO2. After 96 h, 40 μl of MTS reagent (Promega G358a) is added to each well and the cells are incubated for 1 h at 37° C. in 5% CO2.
Compounds with a Cisplatin sensitization value of <0.02 μM are marked with “+++.” Compounds with a Cisplatin sensitization value>0.02 μM but <0.2 μM are marked with “++.” Compounds with a Cisplatin sensitization value>0.2 μM but <5 μM are marked with “+.”
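Note: Test-compound concentration that lowers the Cisplatin IC50 by a set fold.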

| SMILES | Cisplatin Sensitization Assay |
| --- | --- |
| CN1CCOCC1C(=O)N1CCN(c2c(F)cncc2NC(=O)c2c(N)nn3cc(F)cnc23)CC1 (centres unmarked) [I-N-227, 2-amino-6-fluoro-N-(5-fluoro-4-(4-(4-methylmorpholine-3-carbonyl)piperazin-1-yl)pyridin-3-yl)pyrazolo[1,5-a]pyrimidine-3-carboxamide] | +++ (Cisplatin sensitization value of <0.02 μM) |
| CN(C)CCOc1cc(C(F)(F)F)ncc1NC(=O)c1c(N)nn2cc(Cl)cnc12 [I-O-71, 2-amino-6-chloro-N-(4-(2-(dimethylamino)ethoxy)-6-(trifluoromethyl)pyridin-3-yl)pyrazolo[1,5-a]pyrimidine-3-carboxamide] | + (Cisplatin sensitization value>0.2 μM but <5 μM) |
| Nc1nn2cc(F)cnc2c1C(=O)Nc1cncc(F)c1N1CCN(C(=O)CN2CCC2)CC1 [I-N-160, 2-amino-N-(4-(4-(2-(azetidin-1-yl)acetyl)piperazin-1-yl)-5-fluoropyridin-3-yl)-6-fluoropyrazolo[1,5-a]pyrimidine-3-carboxamide] | +++ (Cisplatin sensitization value of <0.02 μM) |
| COCC1CN(c2ccncc2NC(=O)c2c(N)nn3cc(Cl)cnc23)CCN1C (centres unmarked) [I-N-47, 2-amino-6-chloro-N-(4-(3-(methoxymethyl)-4-methylpiperazin-1-yl)pyridin-3-yl)pyrazolo[1,5-a]pyrimidine-3-carboxamide] | ++ (Cisplatin sensitization value>0.02 μM but <0.2 μM) |
| CN1CCN(c2c(NC(=O)c3c(N)nn4cc(F)cnc34)cncc2C2CC2)CC1 [I-N-5, 2-amino-N-(5-cyclopropyl-4-(4-methylpiperazin-1-yl)pyridin-3-yl)-6-fluoropyrazolo[1,5-a]pyrimidine-3-carboxamide] | ++ (Cisplatin sensitization value>0.02 μM but <0.2 μM) |
| CN1C[C@@H]2CCN(c3ccncc3NC(=O)c3c(N)nn4cc(F)cnc34)C[C@@H]2C1=O [I-N-224, 2-amino-6-fluoro-N-(4-((3aR,7aR)-2-methyl-3-oxohexahydro-1H-pyrrolo[3,4-c]pyridin-5(6H)-yl)pyridin-3-yl)pyrazolo[1,5-a]pyrimidine-3-carboxamide] | + (Cisplatin sensitization value>0.2 μM but <5 μM) |
| Nc1nn2cc(F)cnc2c1C(=O)Nc1cnccc1-n1cnc(C(F)(F)F)c1 [I-N-27, 2-amino-6-fluoro-N-(4-(4-(trifluoromethyl)-1H-imidazol-1-yl)pyridin-3-yl)pyrazolo[1,5-a]pyrimidine-3-carboxamide] | ++ (Cisplatin sensitization value>0.02 μM but <0.2 μM) |
| CC(=O)N1CCCC12CCN(c1ccncc1NC(=O)c1c(N)nn3cc(F)cnc13)CC2 [I-N-262, N-(4-(1-acetyl-1,8-diazaspiro[4.5]decan-8-yl)pyridin-3-yl)-2-amino-6-fluoropyrazolo[1,5-a]pyrimidine-3-carboxamide] | +++ (Cisplatin sensitization value of <0.02 μM) |
| Nc1nn2cc(F)cnc2c1C(=O)Nc1cncc(F)c1N1CCC(C(=O)N2CCN3CCC2C3)CC1 (centres unmarked) [I-G-46, N-(4-(4-(1,4-diazabicyclo[3.2.1]octane-4-carbonyl)piperidin-1-yl)-5-fluoropyridin-3-yl)-2-amino-6-fluoropyrazolo[1,5-a]pyrimidine-3-carboxamide] | +++ (Cisplatin sensitization value of <0.02 μM) |
| Cc1cnccc1-c1ccncc1NC(=O)c1c(N)nn2cc(F)cnc12 [I-C-29, 2-amino-6-fluoro-N-(3′-methyl-[4,4′-bipyridin]-3-yl)pyrazolo[1,5-a]pyrimidine-3-carboxamide] | +++ (Cisplatin sensitization value of <0.02 μM) |
| Nc1nn2cc(F)cnc2c1C(=O)Nc1cnccc1O[C@H]1CN2CCC1CC2 [I-O-5, (R)-2-amino-6-fluoro-N-(4-(quinuclidin-3-yloxy)pyridin-3-yl)pyrazolo[1,5-a]pyrimidine-3-carboxamide] | +++ (Cisplatin sensitization value of <0.02 μM) |
| C[C@H]1CN(C(=O)C2CCN(c3c(F)cncc3NC(=O)c3c(N)nn4cc(F)cnc34)CC2)CCN1C [I-G-47, (S)-2-amino-N-(4-(4-(3,4-dimethylpiperazine-1-carbonyl)piperidin-1-yl)-5-fluoropyridin-3-yl)-6-fluoropyrazolo[1,5-a]pyrimidine-3-carboxamide] | +++ (Cisplatin sensitization value of <0.02 μM) |
| Nc1nn2cc(F)cnc2c1C(=O)Nc1cncc(F)c1N1CCN([C@H]2CCOC2)CC1 [I-N-125, (S)-2-amino-6-fluoro-N-(5-fluoro-4-(4-(tetrahydrofuran-3-yl)piperazin-1-yl)pyridin-3-yl)pyrazolo[1,5-a]pyrimidine-3-carboxamide] | +++ (Cisplatin sensitization value of <0.02 μM) |
| CN1CCN(c2ccncc2NC(=O)c2c(N)nn3cc(Cl)cnc23)CC1CO (centres unmarked) [I-N-63, 2-amino-6-chloro-N-(4-(3-(hydroxymethyl)-4-methylpiperazin-1-yl)pyridin-3-yl)pyrazolo[1,5-a]pyrimidine-3-carboxamide] | ++ (Cisplatin sensitization value>0.02 μM but <0.2 μM) |
| CN1CCN(C(=O)C2CCN(c3c(F)cncc3NC(=O)c3c(N)nn4cc(F)cnc34)CC2)CC1(C)C [I-G-15, 2-amino-6-fluoro-N-(5-fluoro-4-(4-(3,3,4-trimethylpiperazine-1-carbonyl)piperidin-1-yl)pyridin-3-yl)pyrazolo[1,5-a]pyrimidine-3-carboxamide] | +++ (Cisplatin sensitization value of <0.02 μM) |
| COc1cncc(NC(=O)c2c(N)nn3cc(F)cnc23)c1-c1cccnc1 [I-C-82, 2-amino-6-fluoro-N-(5′-methoxy-[3,4′-bipyridin]-3′-yl)pyrazolo[1,5-a]pyrimidine-3-carboxamide] | +++ (Cisplatin sensitization value of <0.02 μM) |
| Nc1nn2cc(Cl)cnc2c1C(=O)Nc1cnccc1OC1CCCOC1 (centres unmarked) [I-O-65, 2-amino-6-chloro-N-(4-((tetrahydro-2H-pyran-3-yl)oxy)pyridin-3-yl)pyrazolo[1,5-a]pyrimidine-3-carboxamide] | +++ (Cisplatin sensitization value of <0.02 μM) |
| Nc1nn2cc(F)cnc2c1C(=O)Nc1cnccc1N1CCCC2(COC2)C1 [I-N-253, N-(4-(2-oxa-6-azaspiro[3.5]nonan-6-yl)pyridin-3-yl)-2-amino-6-fluoropyrazolo[1,5-a]pyrimidine-3-carboxamide] | +++ (Cisplatin sensitization value of <0.02 μM) |
| Nc1nn2cc(Cl)cnc2c1C(=O)Nc1cnccc1N1CCN(CC(F)(F)F)CC1 [I-N-67, 2-amino-6-chloro-N-(4-(4-(2,2,2-trifluoroethyl)piperazin-1-yl)pyridin-3-yl)pyrazolo[1,5-a]pyrimidine-3-carboxamide] | +++ (Cisplatin sensitization value of <0.02 μM) |
| CN1CCC[C@@H]1C(=O)N1CCN(c2ccncc2NC(=O)c2c(N)nn3cc(F)cnc23)CC1 [I-N-199, (R)-2-amino-6-fluoro-N-(4-(4-(1-methylpyrrolidine-2-carbonyl)piperazin-1-yl)pyridin-3-yl)pyrazolo[1,5-a]pyrimidine-3-carboxamide] | +++ (Cisplatin sensitization value of <0.02 μM) |
| CC1(S(C)(=O)=O)CCN(c2ccncc2NC(=O)c2c(N)nn3cc(F)cnc23)CC1 [I-N-243, 2-amino-6-fluoro-N-(4-(4-methyl-4-(methylsulfonyl)piperidin-1-yl)pyridin-3-yl)pyrazolo[1,5-a]pyrimidine-3-carboxamide] | +++ (Cisplatin sensitization value of <0.02 μM) |
| Nc1nn2cc(F)cnc2c1C(=O)Nc1cncc(F)c1N1CCN(S(=O)(=O)C2CCOCC2)CC1 [I-N-158, 2-amino-6-fluoro-N-(5-fluoro-4-(4-((tetrahydro-2H-pyran-4-yl)sulfonyl)piperazin-1-yl)pyridin-3-yl)pyrazolo[1,5-a]pyrimidine-3-carboxamide] | +++ (Cisplatin sensitization value of <0.02 μM) |
| CN1CCN(C(=O)c2ccc(-c3c(F)cncc3NC(=O)c3c(N)nn4cc(F)cnc34)cc2)CC1 [I-C-43, 2-amino-6-fluoro-N-(5-fluoro-4-(4-(4-methylpiperazine-1-carbonyl)phenyl)pyridin-3-yl)pyrazolo[1,5-a]pyrimidine-3-carboxamide] | +++ (Cisplatin sensitization value of <0.02 μM) |
| Nc1nn2cc(F)cnc2c1C(=O)Nc1cnccc1N1CCN2CCC[C@H]2C1 [I-N-21, (S)-2-amino-6-fluoro-N-(4-(hexahydropyrrolo[1,2-a]pyrazin-2(1H)-yl)pyridin-3-yl)pyrazolo[1,5-a]pyrimidine-3-carboxamide] | +++ (Cisplatin sensitization value of <0.02 μM) |
| Nc1nn2cc(Cl)cnc2c1C(=O)Nc1cnccc1N1CCn2ccnc2C1 [I-N-44, 2-amino-6-chloro-N-(4-(5,6-dihydroimidazo[1,2-a]pyrazin-7(8H)-yl)pyridin-3-yl)pyrazolo[1,5-a]pyrimidine-3-carboxamide] | ++ (Cisplatin sensitization value>0.02 μM but <0.2 μM) |
| Cc1nc(N2CCN(C)CC2)ccc1-c1ccncc1NC(=O)c1c(N)nn2cc(F)cnc12 [I-C-40, 2-amino-6-fluoro-N-(2-methyl-6-(4-methylpiperazin-1-yl)-[3,4′-bipyridin]-3′-yl)pyrazolo[1,5-a]pyrimidine-3-carboxamide] | +++ (Cisplatin sensitization value of <0.02 μM) |
